According to patent US20250295627A1 (Leibniz-Institut Fuer Neurobiologie, priority 2022, published 2025):

What was measured:
[1] = test system: HEK293T cells; test: Heterologous co-immunoprecipitation from HEK293T cells; format: cell-based; details: 20 nM staurosporine, 3 h
[2] = test system: GluR1; format: cell-based, rat
[3] = Solubility in water; format: physicochemical
[4] = test system: pCREB; test: Jacob-induced CREB shutoff in hippocampal primary neurons expressing phosphodeficient Jacob; format: cell-based, rat; details: 2 μM OA, 20 min, neurons expressing phosphodeficient Jacob in the nucleus
Protocol: Hippocampal neuronal cultures were transfected with plasmid DNA using Lipofectamine2000 (Thermo Fisher Scientific) following the manufacturer's instructions. For LMO4 knockdown cells were expressing shRNA for 5 days; for Jacob knockdown 4 days. […]. The target sequences for LMO4 and NLS-Jacob knockdown (Spilker et al., 2016) as well as scrambled controls are indicated in key resources table. For Aβ-induced CREB shutoff experiments Aβ oligomers (Anaspec) were prepared as described previously (see previous section, (Grochowska et al., 2017)). Transfected neurons were treated with 500 nM Aβ1-42 or Aβ3 (pE)-42. Nitarsone was diluted in distilled water.

[5] = biological target: T1, GST-LMO4 (Homo sapiens, UniProt P61968); test: Isothermal titration calorimetry (ITC); details: binding to LMO4, 25 mM Tris buffer pH 7.4, 50 mM NaCl
T1 construct: made in house; host or cells: E. coli BL21 (DE3)
T1 sequence (P61968 1-165): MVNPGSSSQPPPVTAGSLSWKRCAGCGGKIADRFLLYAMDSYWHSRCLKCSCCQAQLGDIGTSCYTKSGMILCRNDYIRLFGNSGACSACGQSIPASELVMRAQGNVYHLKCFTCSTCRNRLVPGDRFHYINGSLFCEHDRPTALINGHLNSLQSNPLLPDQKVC

CN[C@@H]1C[C@H]2O[C@@](C)([C@@H]1OC)n1c3ccccc3c3c4c(c5c6ccccc6n2c5c31)C(=O)NC4 [staurosporine]
Jacob phosphorylation level (S180) [1]: decreases Jacob phosphorylation level (S180) | association of Jacob with CREB [1]: decreases the association of Jacob with CREB | association of Jacob with LMO4-tagRFP [1]: increases its association with LMO4-tagRFP

NC1=N[C@H](O)[C@H]2[C@H]3O[C@]4(O)O[C@@H]([C@@H](O)[C@@]2(N1)[C@@H]4O)[C@]3(O)CO [TTX, tetrodotoxin]
GluR1 surface expression [2]: induced upregulation of GluR1 surface expression

CC(NCCO)c1ccc([N+](=O)[O-])cc1 (stereo not shown) [NPEAE, 2-{[1-(4-nitrophenyl)ethyl]amino}ethan-1-ol]
solubility in water [3]: soluble in water

C=C1[C@@H](O)[C@@H]2O[C@]3(CC[C@H](/C=C/[C@@H](C)[C@@H]4CC(C)=C[C@@]5(O[C@H](C[C@@](C)(O)C(=O)O)CC[C@H]5O)O4)O3)CC[C@H]2O[C@@H]1[C@@H](O)C[C@H](C)[C@H]1O[C@@]2(CCCCO2)CC[C@H]1C [OA, okadaic acid]
Jacob-induced CREB shutoff [4]: prevented Jacob-induced CREB shutoff

B1: Jacob: synapto-nuclear protein messenger; recombinant protein titrated against LMO4 in ITC (protein, listed as Homo sapiens)
chain: MGAAASRRRALRSEAMSSVAAKVRAARAFGEYLSQSHPENRNGADHLLADAYSGHDGSPEMQPAPQNKRRLSLVSNGCYEGSLSEEPSIRKPAGEGPQPRVYTISGEPALLPSPEAEAIELAVVKGRRQRHPHHHSQPLRASPGGSREDVSRPCQSWAGSRQGSKECPGCAQLAPGPTPRAFGLDQPPLPETSGRRKKLERMYSVDRVSDDIPIRTWFPKENLFSFQTATTTMQAISVFRGYAERKRRKRENDSASVIQRNFRKHLRMVGSRRVKAQTFAERRERSFSRSWSDPTPMKADTSHDSRDSSDLQSSHCTLDEAFEDLDWDTEKGLEAVACDTEGFVPPKVMLISSKVPKAEYIPTIIRRDDPSIIPILYDHEHATFEDILEEIERKLNVYHKGAKIWKMLIFCQGGPGHLYLLKNKVATFAKVEKEEDMIHFWKRLSRLMSKVNPEPNVIHIMGCYILGNPNGEKLFQNLRTLMTPYRVTFESPLELSAQGKQMIETYFDFRLYRLWKSRQHSKLLDFDDVL
Kd [5]: 370 nM
